What follows are compounds tested on beta-TC6 cells (assay: Insulin HTRF assay (relative activity Ar) in beta-TC6 cells). Details: Mus musculus, Beta-TC6, 4 h, insulin HTRF, supernatant of beta-TC6 cells, incubation with test compound at 37°C for 2, 3, 4h; read-out: Ar (relative activity).
Format: cell-based, mouse
Method in brief: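 beta-TC6 cells (15k/well, seeded 24 or 48 h) washed, then exposed to compound in induction buffer (0.5% DMSO final) for 2, 3 or 4 h at 37°C.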

Compared with `c1ccc(Cn2cnc3cnc(Nc4ccc5c(c4)OCO5)cc32)cc1` [Compound 695, N-(1,3-benzodioxol-5-yl)-1-benzyl-imidazo[4,5-c]pyridin-6-amine], `CNc1nc2cnc(Nc3ccc4c(c3)OCO4)cc2n1-c1cccc(C(F)(F)F)c1` [Compound 549, N6-(1,3-benzodioxol-5-yl)-N2-methyl-1-[3-(trifluoromethyl)phenyl]imidazo[4,5-c]pyridine-2,6-diamine] is lower in Emax: 50 to 100% for the first, 30 to 50% for the second.

First: CN(C)c1cccc(Nc2nccc3c2ncn3C)c1 [Compound 450, N1,N1-dimethyl-N3-(1-methylimidazo[4,5-c]pyridin-4-yl)benzene-1,3-diamine]
Second: Cn1cnc2c(Nc3ccc4[nH]ccc4c3)nccc21 [Compound 448, N-(1H-indol-5-yl)-1-methyl-imidazo[4,5-c]pyridin-4-amine]
The Emax of the first is lower: 30 to 50% for the first, 50 to 100% for the second.

First: CNc1nc2cnc(Nc3ccc(C(N)=O)cc3)cc2n1-c1cccc(C(F)(F)F)c1 [Compound 542, 4-[[2-(methylamino)-1-[3-(trifluoromethyl)phenyl]imidazo[4,5-c]pyridin-6-yl]amino]benzamide]
Second: CNc1nc2cnc(Nc3ccc(OC)cc3)cc2n1-c1ccccc1 [Compound 509, N6-(4-methoxyphenyl)-N2-methyl-1-phenyl-imidazo[4,5-c]pyridine-2,6-diamine]
The Emax of the first is lower: 30 to 50% for the first, 50 to 100% for the second.

First: COc1ccc(-c2nc3c(NCC4CC4)nccc3[nH]2)cc1 [Compound 400, N-(cyclopropylmethyl)-2-(4-methoxyphenyl)-1H-imidazo[4,5-c]pyridin-4-amine]
Second: c1cc2[nH]c(-c3ccc4c(c3)OCCO4)nc2c(NCC2CC2)n1 [Compound 419, N-(cyclopropylmethyl)-2-(2,3-dihydro-1,4-benzodioxin-6-yl)-1H-imidazo[4,5-c]pyridin-4-amine]
The Emax of the first is lower: 30 to 50% for the first, 50 to 100% for the second.

`COc1ccc(Nc2nccc3c2cc(-c2ccc(C(=O)N(C)C)cc2)n3C)cn1` [Compound 216, 4-[4-[(6-methoxy-3-pyridyl)amino]-1-methyl-pyrrolo[3,2-c]pyridin-2-yl]-N,N-dimethyl-benzamide] and `COc1ccc(Nc2nccc3c2cc(-c2ccc(N(C)C)cc2)n3C)cc1O` [Compound 228, 5-[[2-(4-dimethylaminophenyl)-1-methyl-pyrrolo[3,2-c]pyridin-4-yl]amino]-2-methoxy-phenol] fall in the same range of Emax: 50 to 100% for the first, 50 to 100% for the second.

First: COc1ccc(Nc2cc3c(cn2)cc(-c2cccnc2)n3C)c(OC)c1 [Compound 83, N-(2,4-dimethoxyphenyl)-1-methyl-2-(3-pyridyl)pyrrolo[3,2-c]pyridin-6-amine]
Second: CC(=O)c1cccc(Nc2cc3c(cn2)cc(-c2cccnc2)n3C)c1 [Compound 97, 1-[3-[[1-methyl-2-(3-pyridyl)pyrrolo[3,2-c]pyridin-6-yl]amino]phenyl]ethanone]
The Emax of the first is higher: 50 to 100% for the first, 30 to 50% for the second.

`CNc1nc2cnc(Nc3cc(OC)c(OC)c(OC)c3)cc2n1CC1CC1` [Compound 567, 1-(cyclopropylmethyl)-N2-methyl-N6-(3,4,5-trimethoxyphenyl)imidazo[4,5-c]pyridine-2,6-diamine] and `CNc1nc2cnc(Nc3cc(OC)c(OC)c(OC)c3)cc2n1-c1ccccc1` [Compound 502, N2-methyl-1-phenyl-N6-(3,4,5-trimethoxyphenyl)imidazo[4,5-c]pyridine-2,6-diamine] fall in the same range of Emax: 50 to 100% for the first, 50 to 100% for the second.

First: Cc1cccc(Nc2nccc3c2cc(-c2cccnc2)n3C)c1 [Compound 241, 1-methyl-N-(m-tolyl)-2-(3-pyridyl)pyrrolo[3,2-c]pyridin-4-amine]
Second: Clc1cccc(-c2cc3c(Nc4cccnc4)nccc3[nH]2)c1 [Compound 315, 2-(3-chlorophenyl)-N-(3-pyridyl)-1H-pyrrolo[3,2-c]pyridin-4-amine]
The Emax of the first is lower: 0 to 30% for the first, 30 to 50% for the second.

Compared with `COc1ccc(Nc2cc3c(cn2)cc(-c2cccc(N(C)C(C)=O)c2)n3C)cc1` [Compound 166, N-[3-[6-(4-methoxyanilino)-1-methyl-pyrrolo[3,2-c]pyridin-2-yl]phenyl]-N-methyl-acetamide], `CC(=O)N(C)c1cccc(-c2cc3cnc(Nc4ccc(N5CCOCC5)cc4)cc3n2C)c1` [Compound 163, N-methyl-N-[3-[1-methyl-6-(4-morpholinoanilino)pyrrolo[3,2-c]pyridin-2-yl]phenyl]acetamide] is higher in Emax: 30 to 50% for the first, 50 to 100% for the second.

First: CNC(=O)c1cccc(-c2cc3c(cn2)nc(NCCOC)n3C)c1 [Compound 652, 3-[2-(2-methoxyethylamino)-1-methyl-imidazo[4,5-c]pyridin-6-yl]-N-methyl-benzamide]
Second: CN(C)c1cccc(-c2cc3c(cn2)nc(NCC2CC2)n3C)c1 [Compound 828, N-(cyclopropylmethyl)-6-[3-(dimethylamino)phenyl]-1-methyl-imidazo[4,5-c]pyridin-2-amine]
The Emax of the first is higher: 50 to 100% for the first, 30 to 50% for the second.

Compared with `Cn1c(NCc2ccccc2F)nc2cnc(-c3cccc(Cl)c3)cc21` [Compound 866, 6-(3-chlorophenyl)-N-[(2-fluorophenyl)methyl]-1-methyl-imidazo[4,5-c]pyridin-2-amine], `CNc1nc2cnc(-c3cccc(Cl)c3)cc2n1Cc1ccccc1` [Compound 532, 1-benzyl-6-(3-chlorophenyl)-N-methyl-imidazo[4,5-c]pyridin-2-amine] is higher in Emax: 30 to 50% for the first, 50 to 100% for the second.

First: CN(C)c1ccc(-c2cc3c(Nc4ccc(S(C)(=O)=O)cc4)nccc3n2C)cc1 [Compound 230, 2-(4-dimethylaminophenyl)-1-methyl-N-(4-methylsulfonylphenyl)pyrrolo[3,2-c]pyridin-4-amine]
Second: CN(C)c1ccc(-c2cc3c(Nc4ccncn4)nccc3n2C)cc1 [Compound 229, 2-(4-dimethylaminophenyl)-1-methyl-N-pyrimidin-4-yl-pyrrolo[3,2-c]pyridin-4-amine]
The Emax of the first is lower: 30 to 50% for the first, over 100% for the second.

`COc1ccc(Nc2nccc3[nH]c(-c4ccccc4Cl)nc23)cc1OC` [Compound 458, 2-(2-chlorophenyl)-N-(3,4-dimethoxyphenyl)-1H-imidazo[4,5-c]pyridin-4-amine] and `COc1cccc(-c2nc3c(Nc4cccc(O)c4)nccc3[nH]2)c1` [Compound 374, 3-[[2-(3-methoxyphenyl)-1H-imidazo[4,5-c]pyridin-4-yl]amino]phenol] fall in the same range of Emax: 50 to 100% for the first, 50 to 100% for the second.

Compared with `COc1ccc(Nc2cc3[nH]c(-c4ccccc4)cc3cn2)cc1OC` [Compound 175, N-(3,4-dimethoxyphenyl)-2-phenyl-1 H-pyrrolo[3,2-c]pyridin-6-amine], `COc1ccc(Nc2cc3[nH]c(-c4cccc(F)c4)cc3cn2)cn1` [Compound 8, 2-(3-fluorophenyl)-N-(6-methoxy-3-pyridyl)-1H-pyrrolo[3,2-c]pyridin-6-amine] is lower in Emax: 50 to 100% for the first, 30 to 50% for the second.

`CC(=O)Nc1cccc(Nc2cc3c(cn2)nc(-c2ccco2)n3C)c1` [Compound 712, N-[3-[[2-(2-furyl)-1-methyl-imidazo[4,5-c]pyridin-6-yl]amino]phenyl]acetamide] and `Cc1cccc(CNc2nc3cnc(Nc4cccc(O)c4)cc3n2C)c1` [Compound 585, 3-[[1-methyl-2-(m-tolylmethylamino)imidazo[4,5-c]pyridin-6-yl]amino]phenol] fall in the same range of Emax: 50 to 100% for the first, 50 to 100% for the second.

First: c1cncc(-c2cc3cnc(N4CCOCC4)cc3[nH]2)c1 [Compound 77, 4-[2-(3-pyridyl)-1H-pyrrolo[3,2-c]pyridin-6-yl]morpholine]
Second: CC(=O)Nc1ccc(Nc2cc3[nH]c(-c4cccnc4)cc3cn2)cc1 [Compound 74, N-[4-[[2-(3-pyridyl)-1H-pyrrolo[3,2-c]pyridin-6-yl]amino]phenyl]acetamide]
The Emax of the first is lower: 50 to 100% for the first, over 100% for the second.

First: Cc1cccc(CNc2nc3cnc(-c4ccoc4)cc3n2C)c1 [Compound 583, 6-(3-furyl)-1-methyl-N-(m-tolylmethyl)imidazo[4,5-c]pyridin-2-amine]
Second: Cn1c(NCC2CCCO2)nc2cnc(-c3ccc4ccccc4c3)cc21 (stereo not shown) [Compound 850, 1-methyl-6-(2-naphthyl)-N-(tetrahydrofuran-2-ylmethyl)imidazo[4,5-c]pyridin-2-amine]
The Emax of the first is higher: 50 to 100% for the first, 30 to 50% for the second.

First: Cn1c(-c2ccsc2)cc2c(Nc3ccncn3)nccc21 [Compound 285, 1-methyl-N-pyrimidin-4-yl-2-(3-thienyl)pyrrolo[3,2-c]pyridin-4-amine]
Second: CN(C)c1cccc(Nc2cc3c(cn2)ncn3-c2ccccc2)c1 [Compound 691, N1,N1-dimethyl-N3-(1-phenylimidazo[4,5-c]pyridin-6-yl)benzene-1,3-diamine]
The Emax of the first is higher: 50 to 100% for the first, 30 to 50% for the second.

First: CC(=O)Nc1ccc(-c2cc3c(cn2)ncn3-c2cccc(F)c2)cc1 [Compound 761, N-[4-[1-(3-fluorophenyl)imidazo[4,5-c]pyridin-6-yl]phenyl]acetamide]
Second: CC(=O)Nc1ccc(Nc2nccc3[nH]c(-c4cccc(F)c4)cc23)cc1 [Compound 198, N-[4-[[2-(3-fluorophenyl)-1H-pyrrolo[3,2-c]pyridin-4-yl]amino]phenyl]acetamide]
The Emax of the first is lower: 0 to 30% for the first, 50 to 100% for the second.

First: COc1cc(Nc2cc3[nH]c(-c4cncn4C)cc3cn2)cc(OC)c1OC [Compound 100, 2-(3-methylimidazol-4-yl)-N-(3,4,5-trimethoxyphenyl)-1H-pyrrolo[3,2-c]pyridin-6-amine]
Second: Cn1cncc1-c1cc2cnc(Nc3cccc(F)c3)cc2[nH]1 [Compound 108, N-(3-fluorophenyl)-2-(3-methylimidazol-4-yl)-1H-pyrrolo[3,2-c]pyridin-6-amine]
The Emax of the first is higher: over 100% for the first, 50 to 100% for the second.

First: CNc1nc2cnc(Nc3ccc(OC)cc3)cc2n1CCOC [Compound 496, 1-(2-methoxyethyl)-N6-(4-methoxyphenyl)-N2-methyl-imidazo[4,5-c]pyridine-2,6-diamine]
Second: CNc1nc2cnc(Nc3ccc(OC)c(OC)c3)cc2n1CCN1CCOCC1 [Compound 555, N6-(3,4-dimethoxyphenyl)-N2-methyl-1-(2-morpholinoethyl)imidazo[4,5-c]pyridine-2,6-diamine]
The Emax of the first is higher: 50 to 100% for the first, 30 to 50% for the second.

Work on `Cn1nc(C(C)(C)C)cc1Nc1cc2c(cn1)ncn2Cc1ccco1` [Compound 776, N-(5-tert-butyl-2-methyl-pyrazol-3-yl)-1-(2-furylmethyl)imidazo[4,5-c]pyridin-6-amine] yielded an Emax of 0 to 30%.

Reference: EP2818472A1, “Imidazo[4,5-c]pyridine and pyrrolo[3,2-c]pyridine compounds as G-protein-coupled receptor kinase 5 (GRK5) modulators” (Max-Planck-Gesellschaft zur Förderung der Wissenschaften …, priority 2013, dated 2014)
